Experimental data taken from patent US20130315843A1, “COMPOSITION FOR REDUCTION OF TRPA1 AND TRPV1 SENSATIONS” (priority 2012, published 2013).

How the values were obtained:
human TRPV1 [1] = target: T1, human TRPV1 (Homo sapiens, UniProt Q8NER1); assay: FLIPR Ca2+ assay, reduction of hydrogen peroxide activation of TRPV1; assay type: cell-based; design: expressed in transfected cells; conditions: for % Reduction of Hydrogen Peroxide TRPV1 Activation / inhibition at 400 µM: antagonist 400 μM against 500 μM hydrogen peroxide; for Ca++ counts: with compound; for inhibition at 100 µM: antagonist 100 μM against 500 μM hydrogen peroxide
T1 sequence (Q8NER1 whole entry): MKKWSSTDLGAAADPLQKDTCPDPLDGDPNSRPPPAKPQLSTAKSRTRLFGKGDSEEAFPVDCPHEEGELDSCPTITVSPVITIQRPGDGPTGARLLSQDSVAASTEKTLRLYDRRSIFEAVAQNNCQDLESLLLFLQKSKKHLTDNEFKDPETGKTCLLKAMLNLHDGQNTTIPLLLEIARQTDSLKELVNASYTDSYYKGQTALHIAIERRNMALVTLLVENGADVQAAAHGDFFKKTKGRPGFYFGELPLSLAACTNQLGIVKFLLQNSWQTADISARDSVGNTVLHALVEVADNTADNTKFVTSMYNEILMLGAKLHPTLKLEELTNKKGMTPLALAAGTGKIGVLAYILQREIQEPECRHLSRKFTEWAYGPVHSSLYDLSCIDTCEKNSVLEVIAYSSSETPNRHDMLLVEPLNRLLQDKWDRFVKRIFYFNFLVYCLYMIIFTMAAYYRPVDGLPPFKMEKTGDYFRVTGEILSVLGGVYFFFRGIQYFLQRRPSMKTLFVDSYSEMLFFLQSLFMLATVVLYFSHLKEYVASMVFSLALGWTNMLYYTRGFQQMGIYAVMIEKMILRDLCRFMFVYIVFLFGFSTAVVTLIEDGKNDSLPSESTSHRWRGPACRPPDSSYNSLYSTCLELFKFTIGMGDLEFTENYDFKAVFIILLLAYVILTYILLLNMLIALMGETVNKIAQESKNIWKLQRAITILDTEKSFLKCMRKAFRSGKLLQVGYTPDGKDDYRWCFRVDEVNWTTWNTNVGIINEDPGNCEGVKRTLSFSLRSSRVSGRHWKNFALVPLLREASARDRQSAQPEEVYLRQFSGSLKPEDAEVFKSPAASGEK
Experimental: (§1) Cells were detached with addition of 10 ml of PBS (phosphate buffered saline) by hand shaking gently. Cells were transferred to a 50 ml tube and centrifuged at 850 rpm for 3 minutes to remove PBS.
The pelleted cells were re-suspended in 10 ml assay buffer and 90 μl aliquots (˜50,000 cells) per well delivered to a 96-well assay plate containing 10 μl of test compounds (1 mM in assay buffer, […]) or buffer control and incubated at room temperature for 30 minutes.

human TRPV1 [2] = target: T1, human TRPV1; assay: FLIPR Ca2+ assay, reduction of capsaicin activation of TRPV1; assay type: cell-based; design: expressed in transfected cells; conditions: for Ca++ counts: with compound
Experimental: as §1
(§2) The pelleted cells were re-suspended in 10 ml assay buffer and 90 μl aliquots (˜50,000 cells) per well delivered to a 96-well assay plate containing 10 μl of test compounds ([…]) or buffer control and incubated at room temperature for 30 minutes.

human TRPA1 = human TRPA1 (Homo sapiens, UniProt O75762); assay: FLIPR Ca2+ assay, reduction of hydrogen peroxide activation of TRPA1; assay type: cell-based; design: expressed in transfected cells
Sequence of human TRPA1 (O75762 whole entry): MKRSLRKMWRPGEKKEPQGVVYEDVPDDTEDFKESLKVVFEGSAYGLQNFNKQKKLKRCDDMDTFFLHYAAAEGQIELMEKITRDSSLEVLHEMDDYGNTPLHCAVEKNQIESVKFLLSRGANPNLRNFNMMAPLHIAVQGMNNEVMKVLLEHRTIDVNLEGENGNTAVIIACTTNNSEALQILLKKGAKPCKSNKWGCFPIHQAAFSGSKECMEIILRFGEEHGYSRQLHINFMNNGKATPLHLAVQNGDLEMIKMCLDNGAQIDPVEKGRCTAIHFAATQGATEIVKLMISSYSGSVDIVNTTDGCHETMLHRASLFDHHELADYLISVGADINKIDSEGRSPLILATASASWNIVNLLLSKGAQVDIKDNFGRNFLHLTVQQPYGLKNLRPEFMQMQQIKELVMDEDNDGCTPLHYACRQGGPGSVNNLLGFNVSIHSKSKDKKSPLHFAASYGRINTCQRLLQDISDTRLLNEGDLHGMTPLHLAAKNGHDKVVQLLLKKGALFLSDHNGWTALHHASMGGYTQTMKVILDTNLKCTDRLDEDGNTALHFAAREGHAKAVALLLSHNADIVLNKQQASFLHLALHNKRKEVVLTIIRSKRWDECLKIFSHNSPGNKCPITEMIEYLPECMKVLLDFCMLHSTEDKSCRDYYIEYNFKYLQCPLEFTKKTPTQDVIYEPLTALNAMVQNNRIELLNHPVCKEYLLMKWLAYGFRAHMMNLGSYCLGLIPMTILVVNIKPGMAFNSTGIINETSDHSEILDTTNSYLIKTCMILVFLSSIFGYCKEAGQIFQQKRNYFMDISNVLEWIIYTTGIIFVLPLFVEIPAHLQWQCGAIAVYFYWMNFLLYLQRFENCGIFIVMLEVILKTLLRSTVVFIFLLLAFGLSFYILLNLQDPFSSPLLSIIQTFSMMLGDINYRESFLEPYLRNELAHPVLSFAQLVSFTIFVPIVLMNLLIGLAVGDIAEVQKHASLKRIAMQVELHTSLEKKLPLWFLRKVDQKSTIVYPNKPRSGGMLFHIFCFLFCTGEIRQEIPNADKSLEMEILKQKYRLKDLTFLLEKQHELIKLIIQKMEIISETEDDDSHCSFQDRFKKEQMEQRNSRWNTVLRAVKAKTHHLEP
Experimental: After centrifugation, a pellet of cells was formed in the bottom of the tube separating them from the supernatant solution.
as §2

[3] = Trained sensory panel, burn sensation after brushing with menthol dentifrice; assay type: in vivo, human; design: key: 0 = no burning to 60 = highest intensity; 7.5 difference = significant; conditions: scale 0-60
Experimental: For EXAMPLES 6 and 7 sensory evaluation studies of menthol and hydrogen peroxide activity were conducted using a methodology patterned after the techniques described in M. C. Meilgaard, et al., Sensory Evaluation Techniques, 4th Ed. (2007). In one study, a panel of 8-15 trained sensory experts evaluated the menthol or peroxide sensations experienced after brushing with a dentifrice containing the menthol or hydrogen peroxide and the respective TRPA1 or TRPV1 antagonists. Panelists brushed teeth with 1.5 grams of a dentifrice (containing coolant) or control (no coolant) and then expectorated. After brush expectoration, panelists evaluated the burn intensity, assigning a number between 0 (no burning) to 60 ([…]). After rinse expectoration, panelists evaluated burning intensity according to the same 0 to 60 scale. Evaluations were conducted at 5, 15, 30, 45, 60 minute, etc. time points. At each evaluation, panelists were instructed to breathe in through pursed lips and evaluate overall burning sensation. In this test, a numerical score difference from the control of 7.5 indicates user significant differences or definite reduction in burning at the specified time point. Measures between 4.0 to 7.5 indicate a noticeable trend in the specified parameter, which is not statistically significant, but noticeable.
For EXAMPLE 6 (TABLES 8 and 9), a panel of 14 trained sensory experts evaluated the sensory profile experienced after brushing with the dentifrice sample formulations shown in TABLES 6 and 7 containing high levels of menthol followed by rinsing with water. Panelists brushed teeth with 1.5 grams of a test dentifrice (containing high menthol levels) or control (no menthol) for 36 seconds and then expectorated. The dentifrice sample formulations (control and high L-Menthol) are shown below in TABLE 6 (with peppermint flavor) and TABLE 7 (with spearmint flavor). The dentifrices were made using conventional methods and are shown below with component amounts in weight % of total composition. […]
For TABLE 10 all the Samples had the same formulation as Sample E from TABLE 6, except for the Control which lacked menthol. After brushing or mouthwash expectoration, panelists evaluated the burning sensation, assigning a number between 0 (no sensation) to 60 (highest intensity sensation). Evaluations were conducted at 5, 10, 20 and 30 minute time points, following expectoration. At each evaluation, panelists were instructed to breathe in through pursed lips and evaluate overall sensation. In this test, a numerical score of 7.5 indicates a significant user noticeable sensation. Differences less than 7.5, but greater than 5.0 indicate the trending of the data on a specific attribute.

CC/C=C/CC1CCCC1=O (stereo not drawn) [Jasminone B]
% inhibition of TRPV1 activation by 500 uM H2O2 (human TRPV1 [1]; Dose 4000): 51% | % Reduction of Hydrogen Peroxide TRPV1 Activation (human TRPV1 [1]): 51% | Ca++ counts (human TRPV1 [1]; Dose 4000, 500 uM H2O2): 903 | % inhibition of TRPV1 activation by 350 nM Capsaicin (human TRPV1 [2]; Dose 4000): 2% | Ca++ counts (human TRPV1 [2]; Dose 4000, 350 nM Capsaicin): 11635

CC1=CC(=O)C(C(C)C)CC1 [L-Piperiton]
% inhibition of TRPV1 activation by 500 uM H2O2 (human TRPV1 [1]; Dose 1000): 58% | Ca++ counts (human TRPV1 [1]; Dose 1000, 500 uM H2O2): 361 | % inhibition of TRPV1 activation by 350 nM Capsaicin (human TRPV1 [2]; Dose 1000): 12% | Ca++ counts (human TRPV1 [2]; Dose 1000, 350 nM Capsaicin): 13225

COC(=O)c1ccccc1N(C)C [Methyl N,N-Dimethylanthranilate]
inhibition at 100 µM (human TRPV1 [1]): 60% | Ca++ counts (human TRPV1 [1]; Dose 1000, 500 uM H2O2): 451 | Ca++ counts (human TRPV1 [2]; Dose 1000, 350 nM Capsaicin): 15329

CCCCCC=CCC1CCCC1=O (stereo not drawn) [Octenyl Cyclopentanone]
% inhibition of TRPV1 activation by 500 uM H2O2 (human TRPV1 [1]; Dose 4000): 50% | % Reduction of Hydrogen Peroxide TRPV1 Activation (human TRPV1 [1]): 50% | Ca++ counts (human TRPV1 [1]; Dose 4000, 500 uM H2O2): 922 | % inhibition of TRPV1 activation by 350 nM Capsaicin (human TRPV1 [2]; Dose 4000): 1% | Ca++ counts (human TRPV1 [2]; Dose 4000, 350 nM Capsaicin): 9378

CC(=O)OC1=C(C)OC(C)C1=O (stereo not drawn) [Strawberry Furanone Acetate, 4-Acetoxy-2,5-dimethyl-3(2H)-furanone]
reduction of hydrogen peroxide activation of TRPA1, in words (human TRPA1): reduced hydrogen peroxide activation of TRPA1 | Block of hydrogen peroxide activation of TRPA1 (human TRPA1; 400 μM antagonist vs 500 μM hydrogen peroxide): BLOCK ONLY H2O2/TRPA1 | inhibition at 400 µM (human TRPA1; antagonist 400 μM against 200 μM hydrogen peroxide, read-out: % Reduction of Hydrogen Peroxide TRPA1 Activation): 63% | reduction of hydrogen peroxide activation of TRPV1, in words (human TRPV1 [1]): hydrogen peroxide reduction of TRPV1 | inhibition at 100 µM (human TRPV1 [1]): 60% | Ca++ counts (human TRPV1 [1]; Dose 1000, 500 uM H2O2): 451 | Ca++ counts (human TRPV1 [2]; Dose 1000, 350 nM Capsaicin): 14578

CC(C)=CC1CC(C)CCO1 (stereo not drawn) [Tetrahydro-4-methyl-2-(2-methyl-1-propenyl)-2H pyran]
inhibition at 400 µM (human TRPV1 [1]): 53% | Ca++ counts (human TRPV1 [1]; Dose 4000, 500 uM H2O2): 866 | Ca++ counts (human TRPV1 [2]; Dose 4000, 350 nM Capsaicin): 11041

CCCN(CCC)CCC [Tripropylamine]
inhibition at 400 µM (human TRPV1 [1]): 63% | Ca++ counts (human TRPV1 [1]; Dose 4000, 500 uM H2O2): 715 | Ca++ counts (human TRPV1 [2]; Dose 4000, 350 nM Capsaicin): 11278

CCCCCCCC1CC(C)OC1=O (stereo not drawn) [α-heptyl-γ-valerolactone]
Burning Sensation Rating ([3]; 5 Min After Rinse, dentifrice Sample E (1% menthol) with antagonist levels as E42): 13.8 | Burning Sensation Rating ([3]; 10 Min After Rinse, dentifrice Sample E (1% menthol) with antagonist levels as E42): 1.3 | Burning Sensation Rating ([3]; 20 Min After Rinse, dentifrice Sample E (1% menthol) with antagonist levels as E42): 0.0 | Burning Sensation Rating ([3]; 30 Min After Rinse, dentifrice Sample E (1% menthol) with antagonist levels as E42): 0.0 | Burning Sensation Rating ([3]; After Expectoration, dentifrice Sample E (1% added menthol) with Apritone 200 ppm, Dihydrojasmone 6 ppm, Isobornyl Isobutyrate 100 ppm, α-heptyl-γ-valerolactone 100 ppm as named): 25.4 | Burning Sensation Rating ([3]; After Rinse, dentifrice Sample E (1% menthol) with antagonist levels as E42): 21.5
